Results on 17 molecules are retold here after patent publication US11504368B2, “2,6-diamino-3,4-dihydropyrimidin-4-one derivatives and use thereof in therapy” (THOMAS HELLEDAYS STIFTELSE FÖR MEDICINSK FORSKNING, priority 2018, dated 2022).

Test [1] concerns the target T1, MTHFD2 (Homo sapiens (Human), UniProt P13995). Kind of test: Inhibition of MTHFD2 (NAD(P)H-Glo luminescence). Format: biochemical. To be noted: 3.4 nmol/L MTHFD2, 5 μmol/L folitixorin, 250 μmol/L NAD+; mean of at least 3 independent measurements. How it is done: DMSO was used as negative control. The serial dilution in DMSO, from compound DMSO stock solution, was created by dispensing from a 384-well low dead volume microplate (LP-0200, Labcyte) and a 384-well polypropylene microplate 2.0 (PP-0200, Labcyte). A total of 2.5 μL MTHFD2 was preincubated with compound or DMSO for 10 min. The enzymatic reaction was initiated by adding 2.5 μL folitixorin (F680350, Toronto Research Chemicals). For background control, 5 μL buffer was added to the well. […] The final concentrations of all reagents in a total assay volume of 5 μL per well were 50 mmol/L Tris-HCl at pH 8.0, 100 mmol/L NaCl, 5 mmol/L MgCl2, 25 mmol/L Na3PO4 at pH 8.0, 0.005% (v/v) Tween-20, and 2 mmol/L 2-mercaptoethanol. After 15 min reaction time, 5 μL NAD(P)H-Glo detection reagent (G9061 or G9062, Promega) was dispensed in all wells and the plate was incubated for 60 min. Luminescence was measured on a plate reader (Envision, PerkinElmer or Sense, Hidex). The light signal produced is proportional to the amount of NAD(P)H in the sample. IC50 values were determined by fitting a four parameter sigmoidal curve model using XLfit (IDBS). Reported IC50 values are the mean of at least 3 independent measurements.

Test [2] deals with HL-60 cells. The test is described as follows: Cancer cell viability assay (HL-60, resazurin). Format: cell-based. To be noted: Homo sapiens, 96 h, mean of at least 3 independent measurements, read-out: HL60 cell proliferation inhibition EC50. On the procedure:
HL-60 cells (human promyelocytic leukemia cells) were seeded in a 384-well plate at a density of 2,000 cells per well in 50 μL induction medium and treated with vehicle (DMSO) or an 11-point concentration range with 3-fold dilution in concentration of compound. Each assay point was run in duplicate. Wells without cells but with DMSO were used as negative controls. The cells were left to proliferate over a period of 96 h, in an incubator at 37° C. and 5% CO2, followed by an addition of 10 μL […] resazurin sodium salt (199303, Sigma-Aldrich) dissolved in DPBS (14190, Gibco). After 4 h of incubation at 37° C. and 5% CO2, the fluorescent signal was measured using an excitation wavelength of 544 nm and an emission wavelength of 595 nm in a Hidex Sense plate reader. Cell plates were incubated in boxes with damp paper tissues to avoid evaporation. All additions, except compound and DMSO, were done using the Multidrop Combi (Thermo Fisher Scientific). DMSO and compounds were pre-dispensed with an Echo 550 Liquid handler (Labcyte) in black, clear bottom, TC-treated and sterile 384-well plates (3764, Corning). Growth medium consisted of RPMI 1640 GlutaMAX (61870, Gibco), 10% (v/v) FBS (10500, Gibco), and 1% (v/v) P/S (15070, Gibco). Induction medium consisted of RPMI 1640 GlutaMAX (61870, Gibco), 5% (v/v) FBS (10500, Gibco), and 1% (v/v) P/S (15070, Gibco). EC50 values were determined by fitting a four parameter sigmoidal curve model using XLfit (IDBS). Reported EC50 values are the mean of at least 3 independent measurements.
A general note: Resazurin is reduced to fluorescent resorufin, in cell work by metabolically active cells.

For test [3], the system named is colorectal cancer patient-derived xenograft. To be noted: colorectal cancer patient-derived xenograft mouse models; Ju et al. (2019); cited from earlier work. (Xenograft models place foreign cells or tissue in a host animal.)
Test [4] has as its target T1, MTHFD2. To be noted: Fu et al. Nat. Commun. (2017); cited from earlier work.

T1 sequence (P13995 36-350): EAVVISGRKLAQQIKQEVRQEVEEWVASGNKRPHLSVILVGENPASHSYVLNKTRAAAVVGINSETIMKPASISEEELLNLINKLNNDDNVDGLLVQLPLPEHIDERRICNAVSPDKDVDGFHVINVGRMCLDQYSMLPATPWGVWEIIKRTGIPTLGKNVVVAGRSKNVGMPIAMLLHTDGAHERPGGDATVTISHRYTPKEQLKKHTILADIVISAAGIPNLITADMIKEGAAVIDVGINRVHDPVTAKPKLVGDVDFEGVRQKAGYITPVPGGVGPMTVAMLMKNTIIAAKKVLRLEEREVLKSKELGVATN

`C=Cc1nc(C(=O)N[C@@H](CCC(=O)O)C(=O)O)ccc1NC(=O)Cc1c(N)nc(N)[nH]c1=O` [Example 21, (2S)-2-((5-[2-(2,4-diamino-6-oxo-1,6-dihydropyrimidin-5-yl)acetamido]-6-ethenylpyridin-2-yl)formamido)pentanedioic acid]: the IC50 (as a rule, the concentration needed to halve the response being measured) in test [1] stood at 298 nM. The EC50 in test [2] came to 8620 nM.
In test [1], `Nc1nc(N)c(NC(=O)Nc2ccc(C(=O)N[C@@H](CC(=O)O)C(=O)O)nc2)c(=O)[nH]1` [Example 22, (2S)-2-[(5-{[(2,4-diamino-6-oxo-1,6-dihydropyrimidin-5-yl)carbamoyl]amino}pyridin-2-yl)formamido]butanedioic acid] came in with an IC50 of 195 nM. Moreover, the EC50 in test [2] stood at 12800 nM.
As for `Nc1nc(N)c(NC(=O)Nc2ccc(C(=O)N[C@@H](CCC(=O)N[C@@H](CCC(=O)O)C(=O)O)C(=O)O)nc2)c(=O)[nH]1` [Example 23, (2S)-2-[(4S)-4-carboxy-4-[(5-{[(2,4-diamino-6-oxo-1,6-dihydropyrimidin-5-yl)carbamoyl]amino}pyridin-2-yl)formamido]butanamido]pentanedioic acid], the IC50 in test [1] is 43 nM. Moreover, the EC50 in test [2] worked out at 835 nM.
The like results for `Nc1nc(N)c(NC(=O)Nc2cnc(C(=O)N[C@@H](CCc3nnn[nH]3)C(=O)O)c(F)c2)c(=O)[nH]1` [Example 24, (2S)-2-[(5-{[(2,4-diamino-6-oxo-1,6-dihydropyrimidin-5-yl)carbamoyl]amino}-3-fluoropyridin-2-yl)formamido]-4-(1H-1,2,3,4-tetrazol-5-yl)butanoic acid] were, in that order, 3 nM and 2 nM.
The molecule `Nc1nc(N)c(NC(=O)Nc2ccc(C(=O)N[C@@H](CCC(=O)N[C@H](CCC(=O)O)C(=O)O)C(=O)O)nc2)c(=O)[nH]1` [Example 25, (2R)-2-[(4S)-4-carboxy-4-[(5-{[(2,4-diamino-6-oxo-1,6-dihydropyrimidin-5-yl)carbamoyl]amino}pyridin-2-yl)formamido]butanamido]pentanedioic acid] registered an IC50 in test [1] of 30 nM. In addition, the EC50 in test [2] was 1940 nM.
In the same order, the values of `Nc1nc(N)c(CC(=O)Nc2ccc(C(=O)N[C@@H](CCC(=O)O)C(=O)O)nc2Oc2ccccc2)c(=O)[nH]1` [Example 26, (2S)-2-((5-[2-(2,4-diamino-6-oxo-1,6-dihydropyrimidin-5-yl)acetamido]-6-phenoxypyridin-2-yl)formamido)pentanedioic acid] are 14 nM and 6190 nM.
Regarding `Nc1nc(N)c(CC(=O)Nc2ccc(C(=O)N[C@@H](CCC(=O)O)C(=O)O)nc2-c2ccccc2)c(=O)[nH]1` [Example 27, (2S)-2-((5-[2-(2,4-diamino-6-oxo-1,6-dihydropyrimidin-5-yl)acetamido]-6-phenylpyridin-2-yl)formamido)pentanedioic acid], the half-maximal inhibitory concentration (IC50) in test [1] came to 65 nM. Besides, the EC50 in test [2] is 2770 nM.
The like results for `Nc1nc(N)c(CC(=O)Nc2ccc(C(=O)N[C@@H](CCC(=O)N[C@@H](CCC(=O)O)C(=O)O)C(=O)O)nc2)c(=O)[nH]1` [Example 28, (2S)-2-[(4S)-4-carboxy-4-({5-[2-(2,4-diamino-6-oxo-1,6-dihydropyrimidin-5-yl)acetamido]pyridin-2-yl}formamido)butanamido]pentanedioic acid] were, in that order, 92 nM and 22 nM.
With `COc1nc(C(=O)N[C@@H](CCC(=O)O)C(=O)O)ccc1NC(=O)Cc1c(N)nc(N)[nH]c1=O` [Example 29, (2S)-2-({5-[2-(2,4-diamino-6-oxo-1,6-dihydropyrimidin-5-yl)acetamido]-6-methoxypyridin-2-yl}formamido)pentanedioic acid], in test [1], it took 44 nM to reach half-maximal inhibition (IC50). Besides, the EC50 in test [2] was 1120 nM.
`Nc1nc(N)c(CC(=O)Nc2cnc(C(=O)N[C@@H](CCC(=O)O)C(=O)O)c(C(F)(F)F)c2)c(=O)[nH]1` [Example 30, (2S)-2-((5-[2-(2,4-diamino-6-oxo-1,6-dihydropyrimidin-5-yl)acetamido]-3-(trifluoromethyl)pyridin-2-yl)formamido)pentanedioic acid] showed an IC50 in test [1] of 1100 nM. Further, the EC50 in test [2] was 161 nM.
`CC(C)[C@H](NC(=O)c1ncc(NC(=O)Nc2c(N)nc(N)[nH]c2=O)cc1F)C(=O)O` [Example 31, (2S)-2-[(5-{[(2,4-diamino-6-oxo-1,6-dihydropyrimidin-5-yl)carbamoyl]amino}-3-fluoropyridin-2-yl)formamido]-3-methylbutanoic acid] yielded an IC50 in test [1] of 8 nM. In test [2], the EC50 was 20 nM.
The like results for `Nc1nc(N)c(CC(=O)Nc2cnc(C(=O)N[C@@H](CCc3nnn[nH]3)C(=O)O)c(F)c2)c(=O)[nH]1` [Example 32, (2S)-2-((5-[2-(2,4-diamino-6-oxo-1,6-dihydropyrimidin-5-yl)acetamido]-3-fluoropyridin-2-yl)formamido)-4-(1H-1,2,3,4-tetrazol-5-yl)butanoic acid] were, in that order, 13 nM and 10 nM.
In the same order, the values of `Nc1nc(N)c(CC(=O)Nc2cnc(C(=O)N[C@@H](Cc3ccccc3)C(=O)O)c(F)c2)c(=O)[nH]1` [Example 33, (2S)-2-((5-[2-(2,4-diamino-6-oxo-1,6-dihydropyrimidin-5-yl)acetamido]-3-fluoropyridin-2-yl)formamido)-3-phenylpropanoic acid] are 92 nM and 24 nM.
In the same order, the values of `CC(C)[C@H](NC(=O)c1ncc(NC(=O)Cc2c(N)nc(N)[nH]c2=O)cc1F)C(=O)O` [Example 34, (2S)-2-((5-[2-(2,4-diamino-6-oxo-1,6-dihydropyrimidin-5-yl)acetamido]-3-fluoropyridin-2-yl)formamido)-3-methylbutanoic acid] are 60 nM and 177 nM.
Molecule `Nc1nc(N)c(NC(=O)Nc2cnc(C(=O)N[C@@H](Cc3ccccc3)C(=O)O)c(F)c2)c(=O)[nH]1` [Example 35, (2S)-2-[(5-{[(2,4-diamino-6-oxo-1,6-dihydropyrimidin-5-yl)carbamoyl]amino}-3-fluoropyridin-2-yl)formamido]-3-phenylpropanoic acid] yielded an IC50 in test [1] of 5 nM. For the same molecule, the EC50 in test [2] was 20 nM.
With `Nc1nc2c(c(=O)[nH]1)N1C(=O)N(c3ccc(C(=O)N[C@@H](CCC(=O)O)C(=O)O)cc3)CC1CN2` (stereo partly drawn) [LY345899], in test [3], the tumor growth result is “statistically significantly suppresses tumor growth” and the tumor weight result is on record as “decreases tumor weight”.
`CO[C@H](CC(=O)O)[C@@H](C)C(=O)[C@H](C)/C=C(\C)[C@H]1OC(=O)[C@H](O)[C@H](O)/C=C/[C@H](C)CCC[C@@H]1C` [carolacton]: the “inhibitor of human MTHFD2” value in test [4] was “nanomolar inhibitor”.
